# Experiments:
# [1] = system: LIS1 heterozygous newborn mice; test: LIS1 protein in newborn mouse brains after SNJ-1945 oral administration; format: in vivo
# Procedure: A neo(−)129S-Pafah1b1^tm2Awb/J homozygous male mouse lacking neo gene was mated with five homozygous EII-Cre transgenic female mice (FVB/N-Tg (EIIa-cre) C5379Lmgd/J, The Jackson Laboratory) by raising them in the same mouse cage. In total, six sets of mouse cages were prepared for the mating experiment. A newborn was defined at the time of delivery confirmation, which was conducted every morning. SNJ-1945 was dissolved in dimethyl sulfoxide (DMSO) at a concentration of 100 mg/ml, and orally administered using pipettes to the newborn mice in an amount of 200 μg/per gram of body weight.
# To determine the effect of SNJ-1945 administration, LIS1 proteins of normal newborn mice and LIS1 heterozygous newborn mice (administered with SNJ-1945) were measured. In the SNJ-1945 administration group, the brain tissues were taken at 0 hour (immediately after the administration), 1 hour, 2 hours, 4 hours, 8 hours, 12 hours, 16 hours, 24 hours, 48 hours, and 72 hours after the administration to measure LIS1 protein, so as to determine the effect of SNJ-1945 over time. Six mice for each group were used for the measurement of LIS1 protein (n=6).
# The newborn mice were killed by cutting off their heads, and the brain tissues thereof were immediately isolated. For the measurement of LIS1 protein amount, the weight of the brains was immediately measured as soon as the brains were removed.
# [2] = system: LIS1 heterozygous mice (Lis1+/−) embryos; test: Apoptosis in mouse embryo brains (TUNEL staining); format: in vivo; settings: 100 μg/g IP to pregnant mice on alternate days from E9.5, read at E15.5, FIG. 9
# Procedure: A neo(−)129S-Pafah1b1^tm2Awb/J homozygous male mouse lacking neo gene was mated with five homozygous EII-Cre transgenic female mice (FVB/N-Tg (EIIa-cre) C5379Lmgd/J, The Jackson Laboratory) by raising them in the same mouse cage. In total, six sets of mouse cages were prepared for the mating experiment. Plug check (confirmation of mating) was carried out every morning between 7 and 10 am, thereby determining the gestation cycle. SNJ-1945 was dissolved in dimethyl sulfoxide (DMSO) at a concentration of 100 mg/ml, and intraperitoneally injected to the pregnant mice carrying LIS1 heterozygous mice (Lis1^+/−) and the pregnant mice carrying control mice (normal mouse embryos), so that the administration amount became 100 μg per gram of body weight on alternate days from Day 9.5 of the embryonic period (E9.5). On Day 15.5 of the embryonic period (E15.5), the pregnant mice were killed by cervical fracture, and the mouse embryos were removed and immobilized for 24 hours by 4% paraformaldehyde (Wako: 162-16065). After substitution with PBS, paraffin embedding was performed by a standard method. The tissue block was cut into 5 μm pieces. Each piece was adhered to an APS-coated slide glass. After deparaffinization, 20 μg/ml proteinase K/PBS treatment was conducted for 15 minutes at room temperature, and 3% H2O2/PBS treatment was performed for ten minutes at room temperature. […]
# [3] = system: fibroblasts derived from human lissencephaly patient (Lis1 +/−); test: Protein quantitative analysis (western blotting) in human fibroblasts; format: cell-based; settings: final SNJ-1945 concentration=200μ, 2-hour culture, FIGS. 21 and 22
# Procedure: In a clean bench, the cells were placed in a 6-well plate in an amount of 3×10^5 cells per well and cultured for 16 hours, thereby adhering the cells to each well. The culture medium in the well was discarded, and the SNJ-1945-containing culture solution (the culture solution containing SNJ-1945-dissolved in Dimethyl Sulfoxide (Sigma, D-5879); final SNJ-1945 concentration=200μ) was added in an amount of 2 ml/well, and a 2-hour culture was performed. As a control, another culture was performed using a culture medium containing the same amount of Dimethyl Sulfoxide (Sigma, D-5879).
# After 2-hour culture by adding SNJ-1945, the cells were washed twice with PBS (−), 500 μl of PBS (−), was added and the cells were scraped with a cell scraper. The scraped cells were collected to a 1.5 ml tube to be subjected to centrifugation for 5 minutes at 4° C. and 15000 rpm; the supernatant was discarded, and a cell precipitate was obtained. […]
# The absorbency of the cell extract was measured, and the protein amount of the entire solution was determined. […] The absorbency at 595 nm was measured using an ARVO Sx (PerkinElmer) 96-well plate reader, and the entire protein amount was determined.
# Then, SDS-PAGE was conducted. […] Based on the protein amount determined by the Bradford method, the cells were loaded to each well of the gel in an amount of 10 μg/well. […]
compound,measurement,setting,value
"COCCOCCOC(=O)N[C@@H](CC(C)C)C(=O)N[C@@H](Cc1ccccc1)C(=O)C(=O)NC1CC1 [compound 17, ((1S)-1-((((1S)-1-Benzyl-2,3-dioxo-3-(cyclopropylamino)propyl)amino)carbonyl)-3-methylbutyl)carbamic acid 5-methoxy-3-oxapentyl ester]",LIS1 protein amount in newborn brain,"[1]; 200 μg per gram of body weight, oral, FIG. 7",recovered to substantially the normal level
same,duration of the effect on LIS1 protein after a single dose,[1]; 200 μg/g oral,continued for at least three days
same,apoptosis in embryo brain (TUNEL),[2],significantly reduced
same,LIS1 amount (western blotting),[3],recovered nearly to the extent of the LIS1 level
same,amount of cytoplasmatic dynein intermediate chain (western blotting),[3],also increased

# From patent US9539298B2, “Lissencephaly therapeutic agent” (OSAKA CITY UNIVERSITY, priority 2010, dated 2017)
